Reference: US20130281512A1, “AGENTS FOR TREATING DISORDERS INVOLVING MODULATION OF RYANODINE RECEPTORS” (LES LABORATOIRES SERVIER, priority 2012, published 2013)

Experiments:
[1] = Metabolic stability in rat hepatic microsomes (Clint, predicted MF %); assay type: in vitro ADME; details: for Clint_mic rat (in vitro intrinsic clearance): 10^-7 M, 0.33 mg protein/ml, NADPH; for MF mic % (metabolic bioavailability): predicted from Clint assuming total absorption
Method: (§1) Compound solubilization: Stock solutions were made in DMSO, and working solutions in water containing 1 mg/ml BSA.
(§2) Prediction of metabolic bioavailability: Metabolic bioavailability predictions (MF %) were based on in vitro metabolic stability measurements with hepatic microsomes assuming total absorption. Briefly, unchanged drugs were quantified by LC-MS-MS following incubation (10^−7M) with rat and human hepatic microsomes (0.33 mg protein/ml) after 0, 5, 15, 30 and 60 min of incubation in presence of NADPH (1 mM). Enzymatic reaction was stopped with methanol (v/v) and proteins were precipitated by centrifugation. The in vitro intrinsic clearances (Clint_mic) expressed as ml/min/g protein were the slope (after LN linearization) of the unchanged drug remaining concentration versus incubation time. In vitro Clint were then scaled up to in vivo whole body (vivoClint) using 0.045 mg prot/kg of liver and liver weight of 11 g for the rat and 1.2 kg for Man.

[2] = Metabolic stability in human hepatic microsomes (Clint, predicted MF %); assay type: in vitro ADME; details: for Clint_mic man (in vitro intrinsic clearance): 10^-7 M, 0.33 mg protein/ml, NADPH; for MF mic % (metabolic bioavailability): predicted from Clint assuming total absorption
Method: as §1, §2

rat hepatocytes = test: Metabolic stability in rat hepatocytes; assay type: in vitro ADME; details: for Clint: 6.00E+05 cells/ml, 10^-7 M
Method: (§3) Compound solubilization: Stock solutions were made in DMSO, and working solutions in William medium containing 1/10 rat plasma or 1/4 human plasma.
(§4) Metabolic stability determination: Compounds were incubated at 10^−7 M with isolated hepatocytes (6E+5 cells/ml for rat hepatocytes and 4E+5 cells/ml for human hepatocytes) at 37° C. in plasma from the same species diluted in Wiliams medium (1/10 dilution for rat and 1/4 dilution for human). Sampling times were performed at 0, 10, 20, 30, 60 and 120 min and enzymatic reaction stopped with methanol (v/v). Proteins were precipitated by centrifugation and the supernatant was analyzed by LC/MS/MS. Clint expressed as ml/min/g protein were calculated as for hepatic microsomes using a ratio of 0.134 mg protein/ml for 4E+5 cells/ml for human and 0.201 mg protein/ml for 6E+5 cells/ml for rat. The presence of the reference drug and the potential metabolite was checked by LC/MS/MS during the assay in each sample.

human hepatocytes = test: Metabolic stability in human hepatocytes; assay type: in vitro ADME; details: for Clint: 4.00E+05 cells/ml, 10^-7 M
Method: as §3, §4

[3] = Metabolic stability in rat microsomes (% remaining); assay type: in vitro ADME
Method: (§5) 0.1M Tris HCl buffer at pH 7.4 containing 5 mM EDTA.
(§6) To a 50 mL falcon tube containing 2.79 mL of dilution buffer were added 0.429 mL of NADPH-regenerating soln. A and 0.079 mL of NADPH-regenerating soln. B […]
(§7) […] A 50 mL falcon tube containing 3.32 mL of dilution buffer was prewarmed at 37° C. for 15 min. (at least 10 min.) 0.178 mL of microsome (24.6 mg/mL) were added to the prewarmed dilution buffer. The protein concentration of this microsome preparation was 1.25 mg/mL.
(§8) Sample (Test Compound)—Original and Intermediate Stock Solutions:
(§9) 100 μM intermediate solution of the test compound from the original stock solution were prepared using the dilution buffer. A 5 μM solution was prepared by diluting the 100 μM intermediate solution using dilution buffer.
(§10) (The experiments were conducted in 1.5 mL eppendorf micro centrifuge tubes) 0 minutes incubation. Procedure: a. Add 100 μL of prewarmed microsomes b. Add 50 μL of 5 μM solution of the test compound. c. Add 500 μL of cold stop solution (ice cold Methanol) d. Add 100 μL of NADPH cofactor solution to the eppendorf. a. Vortex mix the eppendorf. […]
(§11) b. Add 100 μL of NADPH cofactor solution to the eppendorf. c. Add 50 μL of 5 μM solution of the test compound. d. Add 100 μL of prewarmed microsomes e. Incubate the eppendorf at 37° C. 300 rpm for ‘t’ min. on a thermomixer. f. Remove the eppendorf from thermomixer g. Add 500 μL of cold stop solution (ice cold Methanol) h. Vortex mix the eppendorf.
(§12) Both the ‘0’ and ‘t’ minutes incubated samples were centrifuged at 15, 000 rcf at 4° C. for 15 min. 500 μL of the supernatant solution was removed and subject it to LC/MS analysis (SIM—Selected Ion Monitoring) […]
(§13) Results are expressed as % test compound remaining=(MS Area response of T min sample/MS Area response of ‘0’ min sample)*100. The MS area used is an average of duplicate injections.
(§14) Time points=0, 15, 30 and 60 min. for each test compound
(§15) 2 μM Imipramine—5 min. and 2 μM Imipramine—15 min. incubation was used as a positive control for the rat and mouse liver microsome stability experiments.

[4] = Metabolic stability in mouse microsomes (% remaining); assay type: in vitro ADME
Method: as §5, §6, §7, §8, §9, §10, §11, §12, §13, §14, §15

[5] = tested on: ischemia-reperfusion induced heart failure; test: Model of chronic post-ischemic heart failure in rat (ischemia-reperfusion injury); assay type: in vivo; details: 5 mg/kg/d in drinking water, 3 months
Method: Chronic heart failure was induced in male wistar rats (224-240 g, 10-11 weeks of age) by ischemia-reperfusion (I/R) injury. For I/R protocol, the left anterior descending (LAD) coronary artery was occluded for 1 h. Drug treatment (5 mg/kg/d or 10 mg/kg/d in drinking water) was initiated 1 week after reperfusion and was maintained for a 3 month study period. […] Cardiac specimens were also analyzed to assess hypertrophy and collagen content. The study design is depicted in FIG. 3. Experiments were performed in a blinded manner. On parameters measured over time, comparison of Sham versus Vehicle and comparison of drug treatments are analyzed by 2 way ANOVAs with repeated measures. On parameters measured at sacrifice and morphometry, comparisons of Sham versus Vehicle are analyzed by t-test and comparisons of drug treatments by 1-way ANOVA followed by Dunnett test.

PKA-phosphorylated RyR2 = molecular target: T1, PKA-phosphorylated RyR2 (Homo sapiens, UniProt Q92736); test: Calstabin2 rebinding assay: binding of calstabin2 to PKA-phosphorylated RyR2 (cardiac SR, immunoblot); details: 100 nM compound; immunoblot with calstabin2 antibody
T1 construct: Cardiac SR membranes were prepared as previously described; from tissue; host or cells: cardiac sarcoplasmic reticulum (heart muscle microsomes)
T1 sequence (Q92736 whole entry): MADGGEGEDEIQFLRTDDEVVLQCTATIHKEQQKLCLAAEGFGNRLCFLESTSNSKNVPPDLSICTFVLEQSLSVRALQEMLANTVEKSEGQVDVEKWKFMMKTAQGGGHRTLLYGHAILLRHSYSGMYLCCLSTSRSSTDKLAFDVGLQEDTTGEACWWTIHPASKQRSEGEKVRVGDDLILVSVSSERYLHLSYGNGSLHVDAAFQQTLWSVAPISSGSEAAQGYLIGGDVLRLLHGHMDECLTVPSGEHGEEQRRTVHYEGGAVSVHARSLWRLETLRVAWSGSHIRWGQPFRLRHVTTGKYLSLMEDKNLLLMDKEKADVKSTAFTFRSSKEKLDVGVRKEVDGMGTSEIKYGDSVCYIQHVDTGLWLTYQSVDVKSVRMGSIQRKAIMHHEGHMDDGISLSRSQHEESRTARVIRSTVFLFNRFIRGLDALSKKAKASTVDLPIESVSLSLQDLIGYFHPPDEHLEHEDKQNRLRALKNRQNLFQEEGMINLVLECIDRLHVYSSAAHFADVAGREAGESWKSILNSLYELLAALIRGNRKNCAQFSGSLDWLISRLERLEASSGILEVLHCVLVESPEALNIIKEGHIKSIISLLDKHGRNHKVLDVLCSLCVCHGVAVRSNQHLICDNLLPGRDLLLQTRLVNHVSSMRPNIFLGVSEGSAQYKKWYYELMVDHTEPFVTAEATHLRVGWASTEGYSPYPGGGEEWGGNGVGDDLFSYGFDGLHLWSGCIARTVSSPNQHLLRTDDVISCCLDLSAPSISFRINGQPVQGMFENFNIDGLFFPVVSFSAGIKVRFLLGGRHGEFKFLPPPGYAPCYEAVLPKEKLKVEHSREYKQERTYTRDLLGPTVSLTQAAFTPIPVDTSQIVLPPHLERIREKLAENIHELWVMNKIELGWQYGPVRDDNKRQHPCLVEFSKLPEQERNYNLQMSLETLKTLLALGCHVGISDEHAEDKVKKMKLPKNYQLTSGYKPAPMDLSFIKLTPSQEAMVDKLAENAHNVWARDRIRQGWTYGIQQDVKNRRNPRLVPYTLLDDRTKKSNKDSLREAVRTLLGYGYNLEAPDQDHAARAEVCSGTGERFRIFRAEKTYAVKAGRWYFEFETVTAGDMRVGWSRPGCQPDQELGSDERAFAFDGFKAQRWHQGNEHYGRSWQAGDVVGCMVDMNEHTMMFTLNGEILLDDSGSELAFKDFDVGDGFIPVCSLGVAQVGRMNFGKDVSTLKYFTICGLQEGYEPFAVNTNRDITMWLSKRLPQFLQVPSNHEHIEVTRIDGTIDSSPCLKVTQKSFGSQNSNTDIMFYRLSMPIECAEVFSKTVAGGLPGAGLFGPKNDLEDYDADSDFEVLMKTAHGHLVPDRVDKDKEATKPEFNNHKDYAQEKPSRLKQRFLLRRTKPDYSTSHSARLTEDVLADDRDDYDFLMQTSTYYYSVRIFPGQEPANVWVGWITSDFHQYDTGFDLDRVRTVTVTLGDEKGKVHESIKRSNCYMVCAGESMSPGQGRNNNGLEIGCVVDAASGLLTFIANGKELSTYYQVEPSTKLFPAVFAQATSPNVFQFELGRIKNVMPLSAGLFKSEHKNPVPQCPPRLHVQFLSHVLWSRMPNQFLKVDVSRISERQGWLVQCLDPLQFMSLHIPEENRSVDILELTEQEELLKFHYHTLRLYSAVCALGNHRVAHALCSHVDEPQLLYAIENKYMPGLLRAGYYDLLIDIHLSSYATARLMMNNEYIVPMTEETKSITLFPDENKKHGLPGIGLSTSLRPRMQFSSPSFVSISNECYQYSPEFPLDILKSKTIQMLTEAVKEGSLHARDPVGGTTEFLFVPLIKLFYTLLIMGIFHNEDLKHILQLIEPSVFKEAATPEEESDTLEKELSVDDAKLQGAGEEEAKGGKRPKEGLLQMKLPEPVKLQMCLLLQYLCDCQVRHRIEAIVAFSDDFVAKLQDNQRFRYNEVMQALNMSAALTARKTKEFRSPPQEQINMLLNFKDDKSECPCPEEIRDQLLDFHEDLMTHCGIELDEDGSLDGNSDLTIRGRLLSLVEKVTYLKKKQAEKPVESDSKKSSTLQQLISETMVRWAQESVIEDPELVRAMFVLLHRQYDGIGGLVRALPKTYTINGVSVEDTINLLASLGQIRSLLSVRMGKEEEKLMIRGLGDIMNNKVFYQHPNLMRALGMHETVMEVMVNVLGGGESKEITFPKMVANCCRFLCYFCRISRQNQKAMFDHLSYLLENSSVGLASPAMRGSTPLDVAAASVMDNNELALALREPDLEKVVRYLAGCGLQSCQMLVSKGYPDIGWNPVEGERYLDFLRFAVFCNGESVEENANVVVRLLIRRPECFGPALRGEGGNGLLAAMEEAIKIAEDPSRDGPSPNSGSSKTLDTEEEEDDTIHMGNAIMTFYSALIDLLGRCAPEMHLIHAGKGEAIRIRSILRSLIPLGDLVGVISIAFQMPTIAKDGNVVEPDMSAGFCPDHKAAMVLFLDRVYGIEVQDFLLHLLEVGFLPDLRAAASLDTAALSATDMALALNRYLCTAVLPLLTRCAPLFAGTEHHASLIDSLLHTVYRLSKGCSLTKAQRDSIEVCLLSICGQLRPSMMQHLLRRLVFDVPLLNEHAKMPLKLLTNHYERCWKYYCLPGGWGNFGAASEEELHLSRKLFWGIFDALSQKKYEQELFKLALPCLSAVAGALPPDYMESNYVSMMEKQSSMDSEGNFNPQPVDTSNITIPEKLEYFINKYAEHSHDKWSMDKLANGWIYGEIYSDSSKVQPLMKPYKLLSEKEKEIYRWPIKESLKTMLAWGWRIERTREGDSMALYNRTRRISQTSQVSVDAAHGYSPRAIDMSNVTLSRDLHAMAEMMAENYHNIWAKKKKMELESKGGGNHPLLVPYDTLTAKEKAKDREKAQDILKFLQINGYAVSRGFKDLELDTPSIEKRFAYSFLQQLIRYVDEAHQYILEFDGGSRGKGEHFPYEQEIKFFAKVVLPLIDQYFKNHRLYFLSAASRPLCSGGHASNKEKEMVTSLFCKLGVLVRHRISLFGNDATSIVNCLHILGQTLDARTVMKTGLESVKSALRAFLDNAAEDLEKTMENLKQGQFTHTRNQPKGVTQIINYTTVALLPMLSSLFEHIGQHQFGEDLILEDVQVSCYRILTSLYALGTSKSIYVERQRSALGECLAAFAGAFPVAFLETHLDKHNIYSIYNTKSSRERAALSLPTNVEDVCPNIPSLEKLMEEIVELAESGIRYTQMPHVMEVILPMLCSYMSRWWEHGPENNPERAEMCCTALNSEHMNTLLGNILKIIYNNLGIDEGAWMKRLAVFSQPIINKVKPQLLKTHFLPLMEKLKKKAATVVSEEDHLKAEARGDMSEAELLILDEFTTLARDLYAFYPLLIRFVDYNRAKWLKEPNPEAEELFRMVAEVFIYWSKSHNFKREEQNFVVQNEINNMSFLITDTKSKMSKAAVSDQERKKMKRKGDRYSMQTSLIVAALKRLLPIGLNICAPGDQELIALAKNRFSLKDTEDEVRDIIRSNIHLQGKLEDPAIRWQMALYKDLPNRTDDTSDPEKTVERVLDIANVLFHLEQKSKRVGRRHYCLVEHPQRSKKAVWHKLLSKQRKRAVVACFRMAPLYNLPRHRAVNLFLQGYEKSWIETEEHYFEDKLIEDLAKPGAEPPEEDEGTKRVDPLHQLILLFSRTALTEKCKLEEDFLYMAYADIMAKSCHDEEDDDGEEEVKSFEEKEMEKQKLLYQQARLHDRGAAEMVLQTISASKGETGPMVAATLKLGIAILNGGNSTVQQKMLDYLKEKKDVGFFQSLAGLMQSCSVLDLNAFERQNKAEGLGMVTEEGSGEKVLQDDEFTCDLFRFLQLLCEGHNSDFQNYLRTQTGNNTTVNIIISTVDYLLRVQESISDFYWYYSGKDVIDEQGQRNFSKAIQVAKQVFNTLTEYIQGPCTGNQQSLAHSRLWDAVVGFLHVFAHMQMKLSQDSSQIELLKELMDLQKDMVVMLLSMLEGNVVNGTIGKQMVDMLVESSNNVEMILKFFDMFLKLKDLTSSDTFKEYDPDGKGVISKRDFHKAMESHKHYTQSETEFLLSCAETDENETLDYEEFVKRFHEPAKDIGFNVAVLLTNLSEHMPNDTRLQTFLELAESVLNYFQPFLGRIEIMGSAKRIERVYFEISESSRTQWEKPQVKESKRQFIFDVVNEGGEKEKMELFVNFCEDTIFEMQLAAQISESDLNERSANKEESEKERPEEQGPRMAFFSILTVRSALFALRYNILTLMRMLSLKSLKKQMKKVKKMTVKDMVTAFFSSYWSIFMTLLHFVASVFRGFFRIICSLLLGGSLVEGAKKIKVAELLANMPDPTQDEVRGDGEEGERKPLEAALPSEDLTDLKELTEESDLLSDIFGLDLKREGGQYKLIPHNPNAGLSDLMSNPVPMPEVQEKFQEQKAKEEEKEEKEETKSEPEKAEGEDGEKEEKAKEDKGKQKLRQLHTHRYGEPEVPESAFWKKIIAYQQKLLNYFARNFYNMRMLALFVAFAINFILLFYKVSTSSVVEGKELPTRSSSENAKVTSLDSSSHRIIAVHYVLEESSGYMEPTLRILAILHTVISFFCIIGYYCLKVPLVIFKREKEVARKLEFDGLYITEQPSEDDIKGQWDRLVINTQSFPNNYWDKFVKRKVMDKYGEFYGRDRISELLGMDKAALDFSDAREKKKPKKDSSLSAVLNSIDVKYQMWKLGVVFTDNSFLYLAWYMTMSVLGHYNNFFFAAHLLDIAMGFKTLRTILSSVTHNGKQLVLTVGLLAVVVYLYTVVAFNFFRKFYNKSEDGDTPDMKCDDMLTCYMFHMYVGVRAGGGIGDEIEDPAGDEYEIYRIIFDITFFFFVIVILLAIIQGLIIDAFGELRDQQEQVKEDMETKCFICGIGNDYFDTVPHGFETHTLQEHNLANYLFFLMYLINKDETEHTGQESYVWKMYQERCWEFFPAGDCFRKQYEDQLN
T1 sequence (P68106 whole entry partner): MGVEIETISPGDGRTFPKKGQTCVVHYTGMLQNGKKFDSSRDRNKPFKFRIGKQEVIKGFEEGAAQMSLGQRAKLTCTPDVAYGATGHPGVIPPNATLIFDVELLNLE
Method: Cardiac SR membranes were prepared as previously described (Marx et al., 2000; Kaftan et al., Circ. Res., 1996, 78:990-97). Immunoblotting of microsomes (50 μg) was performed as described, with anti-calstabin antibody (1:1,000) (Jayaraman et al., J. Biol. Chem., 1992, 267:9474-77) for 1 hr at room temperature (Reiken et al., Circulation, 107:2459-66, 2003). After incubation with HRP-labeled anti-rabbit IgG (1:5,000 dilution; Transduction Laboratories, Lexington, Ky.), the blots were developed using ECL (Amersham Pharmacia, Piscataway, N.J.) and detected on x-ray film, or exposed to secondary antibodies labeled with infrared Dye and visualized on equipment from Li-Cor Biosciences (model Odyssey). Unless otherwise stated, compounds were tested at a concentration of 100 nM. A representative calstabin2 binding assay is presented below.
A. PKA phosphorylation of cardiac sarcoplasmic reticulum (CSR)
B. Reaction mixture was set up in 1.5 ml microfuge tube. 200 μg of cardiac SR were added to a reaction mix of kinase buffer, PKA and ATP to a final volume of 100 (Reaction mix below). ATP was added last to initiate the reaction.
20 μl Sample (cardiac SR, 2 or 10 μg/μl) 10 μl=10× Kinase buffer (80 mM MgCl2, 100 mM EGTA, 500 mM Tris/PIPES), pH=7.0
20 μl PKA (2units/ul) (Sigma # P2645)
40 μl=distilled H2O • 1. The tubes were incubated at 30° C. for 30 minutes. • 2. The reaction mix was then transferred to 0.5 ml thick walled glass tubes. • 3. The glass tubes containing the reaction mix were centrifuged for 10 min at 50,000×g in Sorvall Centrifuge RCM120EX using S120AT3 rotor. Centrifugation at 50,000×g for 10 min is sufficient to isolate the microsomes. • 4. The resulting pellet was washed 4 times with binding buffer (10 mM Imidazol 300 mM Sucrose, pH=7.4). Each time 100111 of 1× binding buffer was added to the tube to wash the pellet. The pellet was resuspended by flushing up and down using the pipette tip. After the last spin 501.11 of binding buffer was added and the pellets from all tubes were pooled. The reaction was stored at −20° C. • 5. Phosphorylation was confirmed by separating approximately 10 μg of CSR by 6% Polyacylamide gel electrophoresis (PAGE) and analyzing the immunoblots for both total RyR (5029 Ab, 1:3000 dilution or Monoclonal Ab from Affinity Bioreagents, Cat # MA3-916, 1:2000 dilution) and PKA phosphorylated RyR2 (P2809 Ab, 1:10000 dilution). • 6. Aliquots can be stored at −80 C.
C. Calstabin Rebinding Assay
• 1. PKA-phosphorylated CSR (approximately 20 μg) was incubated with 250 nM Calstabin 2 in 100111 binding buffer (as described above) with or without compounds. • 2. […] Calstabin2 binding was detected with anti-FKBP (Jayaraman et al., J. Biol. Chem. 1992; 267:9474-77, 1:2000) primary antibody and appropriate secondary antibody.

DMD exon skipping = details: skeletal muscle of mdx mice; cited from earlier work
PKA-phosphorylated RyR1 = PKA-phosphorylated RyR1 (Homo sapiens, UniProt P21817); test: biochemical
Method: Immunoblotting of microsomes (50 μg) was performed as described, with anti-calstabin1 antibody (Zymed) (1:1,000). The blots were developed and quantified as described in Example 2.

COc1ccc2c(c1)CN(Cc1ccc(O)cc1)CCS2 [B]
Class (metabolic bioavailability) [1]: very low
Clint_mic rat (in vitro intrinsic clearance) [1]: 823 ml/min/gprot
MF mic % (metabolic bioavailability) [1]: 5%
Class (metabolic bioavailability) [2]: very low
Clint_mic man (in vitro intrinsic clearance) [2]: 285 ml/min/gprot
MF mic % (metabolic bioavailability) [2]: 6%
MF rat % (rat hepatocytes): 3%
Clint (rat hepatocytes): 1334 ml/min/gprot
MF human % (human hepatocytes): 3%
Clint (human hepatocytes): 693 ml/min/gprot
% remaining ([3]; 15 min): 1%
% remaining ([3]; 30 min): 0%
% remaining ([3]; 1 h): 0%
% remaining ([4]; 15 min): 0%
% remaining ([4]; 30 min): 0%
% remaining ([4]; 1 h): 0%

COc1ccc2c(c1)CN(CC(=O)O)CCS2 [A]
systolic and diastolic cardiac function [5]: failed to improve

COc1ccc2c(c1)CN(Cc1ccccc1)CCS2 [Compound C]
Class (metabolic bioavailability) [1]: very low
Clint_mic rat (in vitro intrinsic clearance) [1]: 1926 ml/min/gprot
MF mic % (metabolic bioavailability) [1]: 2%
Class (metabolic bioavailability) [2]: very low
Clint_mic man (in vitro intrinsic clearance) [2]: 1326 ml/min/gprot
MF mic % (metabolic bioavailability) [2]: 2%
MF rat % (rat hepatocytes): 2%
Clint (rat hepatocytes): 2610 ml/min/gprot
MF human % (human hepatocytes): 16%
Clint (human hepatocytes): 100 ml/min/gprot
% remaining ([3]; 15 min): 0%
% remaining ([3]; 30 min): 0%
% remaining ([3]; 1 h): 0%
% remaining ([4]; 15 min): 0%
% remaining ([4]; 30 min): 0%
% remaining ([4]; 1 h): 0%

COC(=O)c1ccc(CN2CCSc3ccc(OC)cc3C2)cc1 [Compound 3, Methyl 4-((7-methoxy-2,3-dihydrobenzo[f][1,4]thiazepin-4(5H)-yl)methyl)benzoate]
binding of calstabin2 to PKA-phosphorylated RyR2 (PKA-phosphorylated RyR2): prevent dissociation of calstabin2 from PKA-phosphorylated RyR2, and/or enhance the (re)binding of calstabin2 to PKA-phosphorylated RyR2

COC(=O)c1cccc(CN2CCSc3ccc(OC)cc3C2)c1 [Compound 2, Methyl 3-((7-methoxy-2,3-dihydrobenzo[f][1,4]thiazepin-4(5H)-yl)methyl)benzoate]
binding of calstabin2 to PKA-phosphorylated RyR2 (PKA-phosphorylated RyR2): prevent dissociation of calstabin2 from PKA-phosphorylated RyR2, and/or enhance the (re)binding of calstabin2 to PKA-phosphorylated RyR2

O=C1CN(/N=C/c2ccc(-c3ccc([N+](=O)[O-])cc3)o2)C(O)=N1 [Dantrolene]
antisense oligomer-guided exon skipping (DMD exon skipping): potentiate

COc1ccc2c(c1)CN(Cc1cccc(C(=O)O)c1)CCS2 [Compound 4, 3-((7-Methoxy-2,3-dihydrobenzo[f][1,4]thiazepin-4(5H)-yl)methyl)benzoic acid]
binding of calstabin2 to PKA-phosphorylated RyR2 (PKA-phosphorylated RyR2): prevent dissociation of calstabin2 from PKA-phosphorylated RyR2, and/or enhance the (re)binding of calstabin2 to PKA-phosphorylated RyR2
EC50 (PKA-phosphorylated RyR1): ~0.15 µM
binding of calstabin1 to PKA phosphorylated RyR1 (PKA-phosphorylated RyR1; indicated concentrations, immunoblot with calstabin1 antibody): prevented the dissociation of calstabin1 from PKA phosphorylated RyR1 and/or enhanced the (re)binding of calstabin1 to PKA-phosphorylated RyR1 in a dose-dependent manner
